Reference: US8729061B2, “Pyrrolidine derivatives” (Hoffmann-La Roche Inc., priority 2011, dated 2014)
pIC50: −log10 of the molar value.

Key:
Type in all cases: biochemical
human Cathepsin S = human Cathepsin S (Homo sapiens (Human), UniProt P25774); assay: Cathepsin enzyme inhibition assay (fluorogenic peptide substrate), Cat S; conditions: enzyme 1 nM, substrate Z-Val-Val-Arg-AMC 20 μM, pH 6.5
Protocol: (§1) Enzyme activity is measured by observing the increase in fluorescence intensity caused by cleavage of a peptide substrate containing a fluorophore whose emission is quenched in the intact peptide.
(§2) Assay buffer: 100 mM potassium phosphate pH 6.5, EDTA-Na 5 mM, Triton X-100 0.001%, DTT 5 mM.
(§3) Enzymes (all at 1 nM): human and mouse Cathepsin S, Cat K, Cat B, Cat L. Substrate (20 μM): Z-Val-Val-Arg-AMC, except for Cat K which uses Z-Leu-Arg-AMC (both from Bachem).
(§4) Excitation 360 nm, Emission 465 nm.
(§5) Enzyme is added to the substance dilutions in 96-well microtitre plates and the reaction is started with substrate. […] IC50 are calculated by standard methods. Inhibition of human Cat S, mouse Cat S, human Cat K, mouse Cat K, human Cat B, mouse Cat B, human Cat L and mouse Cat L have been measured separately.

human Cat L = human Cat L (Homo sapiens (Human), UniProt P07711); assay: Cathepsin enzyme inhibition assay (fluorogenic peptide substrate), Cat L; conditions: enzyme 1 nM, substrate Z-Val-Val-Arg-AMC 20 μM, pH 6.5
Protocol: as §1, §2, §3, §4, §5

human Cat K = human Cat K (Homo sapiens (Human), UniProt P43235); assay: Cathepsin enzyme inhibition assay (fluorogenic peptide substrate), Cat K; conditions: enzyme 1 nM, substrate Z-Leu-Arg-AMC 20 μM, pH 6.5
Protocol: as §1, §2, §3, §4, §5

human Cat B = human Cat B (Homo sapiens (Human), UniProt P07858); assay: Cathepsin enzyme inhibition assay (fluorogenic peptide substrate), Cat B; conditions: enzyme 1 nM, substrate Z-Val-Val-Arg-AMC 20 μM, pH 6.5
Protocol: as §1, §2, §3, §4, §5

Chain of human Cat L (P07711 114-333): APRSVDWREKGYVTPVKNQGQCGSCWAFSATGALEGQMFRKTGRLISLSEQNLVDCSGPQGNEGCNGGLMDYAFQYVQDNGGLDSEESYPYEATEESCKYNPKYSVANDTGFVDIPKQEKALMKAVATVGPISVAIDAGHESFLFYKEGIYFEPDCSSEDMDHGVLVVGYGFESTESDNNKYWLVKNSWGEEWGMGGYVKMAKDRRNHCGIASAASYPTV
Chain of human Cathepsin S (P25774 115-331): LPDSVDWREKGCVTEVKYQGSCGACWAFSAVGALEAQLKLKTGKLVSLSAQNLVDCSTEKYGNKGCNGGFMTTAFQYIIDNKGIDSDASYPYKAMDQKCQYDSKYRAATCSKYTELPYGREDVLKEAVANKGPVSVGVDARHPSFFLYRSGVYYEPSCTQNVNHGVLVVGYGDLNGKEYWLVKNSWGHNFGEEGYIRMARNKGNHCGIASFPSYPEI
Chain of human Cat K (P43235 115-329): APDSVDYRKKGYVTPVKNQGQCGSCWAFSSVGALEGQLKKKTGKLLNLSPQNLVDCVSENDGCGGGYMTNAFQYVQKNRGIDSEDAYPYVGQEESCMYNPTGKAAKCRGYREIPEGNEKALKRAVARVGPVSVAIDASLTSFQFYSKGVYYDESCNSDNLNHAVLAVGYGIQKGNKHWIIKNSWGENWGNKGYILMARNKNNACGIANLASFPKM

pIC50 (human Cathepsin S) | pIC50 (human Cat L) | pIC50 (human Cat K) | pIC50 (human Cat B) | Structure (SMILES)
8.92 | 8.01 | 7.67 | 7.51 | CCC[C@H](NC(=O)[C@@H]1C[C@@H](S(=O)(=O)c2ccccc2Cl)CN1C(=O)C1(c2ccc(Cl)cc2)CC1)C(=O)C(=O)NCc1ccccc1 [Example 35, (2S,4R)—N—((S)-1-(benzylamino)-1,2-dioxohexan-3-yl)-1-(1-(4-chlorophenyl)cyclopropanecarbonyl)-4-(2-chlorophenylsulfonyl)pyrrolidine-2-carboxamide]
9.11 | 7.78 | 6.81 | 6.46 | CCCC(C)NC(=O)C(=O)[C@H](CC)NC(=O)[C@@H]1C[C@@H](S(=O)(=O)c2ccccc2Cl)CN1C(=O)C1(c2ccc(Cl)cc2)CC1 (stereo partly drawn) [Example 36, (2S,4R)-1-(1-(4-chlorophenyl)cyclopropanecarbonyl)-4-(2-chlorophenylsulfonyl)-N-((3S)-1,2-dioxo-1-(pentan-2-ylamino)pentan-3-yl)pyrrolidine-2-carboxamide]
8.99 | 7.82 | 6.97 | 6.61 | CCCC(C)NC(=O)C(=O)[C@H](CCC)NC(=O)[C@@H]1C[C@@H](S(=O)(=O)c2ccccc2Cl)CN1C(=O)C1(c2ccc(Cl)cc2)CC1 (stereo partly drawn) [Example 37, (2S,4R)-1-(1-(4-chlorophenyl)cyclopropanecarbonyl)-4-(2-chlorophenylsulfonyl)-N-((3S)-1,2-dioxo-1-(pentan-2-ylamino)hexan-3-yl)pyrrolidine-2-carboxamide]
9.47 | 7.97 | 7.27 | 6.81 | CC[C@H](NC(=O)[C@@H]1C[C@@H](S(=O)(=O)c2ccc(Cl)cc2Cl)CN1C(=O)C1(c2ccc(Cl)cc2)CC1)C(=O)C(=O)NC1CC1 [Example 38, (2S,4R)-1-(1-(4-chlorophenyl)cyclopropanecarbonyl)-N—((S)-1-(cyclopropylamino)-1,2-dioxopentan-3-yl)-4-(2,4-dichlorophenylsulfonyl)pyrrolidine-2-carboxamide]
9.25 | 7.94 | 7.20 | 6.85 | CC[C@H](NC(=O)[C@@H]1C[C@@H](S(=O)(=O)c2ccc(F)cc2Cl)CN1C(=O)C1(c2ccc(Cl)cc2)CC1)C(=O)C(=O)NC1CC1 [Example 39, (2S,4R)-4-(2-chloro-4-fluorophenylsulfonyl)-1-(1-(4-chlorophenyl)cyclopropanecarbonyl)-N—((S)-1-(cyclopropylamino)-1,2-dioxopentan-3-yl)pyrrolidine-2-carboxamide]
8.97 | 7.52 | 6.39 | 6.44 | CCC[C@H](NC(=O)[C@@H]1C[C@@H](S(=O)(=O)c2ccccc2Cl)CN1C(=O)C1(c2ccc(Cl)cc2)CC1)C(=O)C(=O)NCC(F)(F)F [Example 40, (2S,4R)-1-(1-(4-chlorophenyl)cyclopropanecarbonyl)-4-(2-chlorophenylsulfonyl)-N—((S)-1,2-dioxo-1-(2,2,2-trifluoroethylamino)hexan-3-yl)pyrrolidine-2-carboxamide]
9.25 | 7.93 | 6.82 | 6.73 | CCC[C@H](NC(=O)[C@@H]1C[C@@H](S(=O)(=O)c2ccccc2Cl)CN1C(=O)C1(c2ccc(Cl)cc2)CC1)C(=O)C(=O)NC(C)C [Example 41, (2S,4R)-1-(1-(4-chlorophenyl)cyclopropanecarbonyl)-4-(2-chlorophenylsulfonyl)-N—((S)-1-(isopropylamino)-1,2-dioxohexan-3-yl)pyrrolidine-2-carboxamide]
9.11 | 7.87 | 7.04 | 6.97 | CCC[C@H](NC(=O)[C@@H]1C[C@@H](S(=O)(=O)c2ccccc2Cl)CN1C(=O)C1(c2ccc(Cl)cc2)CC1)C(=O)C(=O)NCC [Example 44, (2S,4R)-1-(1-(4-chlorophenyl)cyclopropanecarbonyl)-4-(2-chlorophenylsulfonyl)-N—((S)-1-(ethylamino)-1,2-dioxohexan-3-yl)pyrrolidine-2-carboxamide]
8.27 | 7.13 | 6.67 | 6.47 | CC[C@H](NC(=O)[C@@H]1C[C@@H](S(=O)(=O)c2ccc(O[C@@H](C)C(F)(F)F)cc2Cl)CN1C(=O)C1(c2ccc(Cl)cc2)CC1)C(=O)C(=O)NC1CC1 [Example 45, (2S,4R)-4-(2-chloro-4-((S)-1,1,1-trifluoropropan-2-yloxy)phenylsulfonyl)-1-(1-(4-chlorophenyl)cyclopropanecarbonyl)-N—((S)-1-(cyclopropylamino)-1,2-dioxopentan-3-yl)pyrrolidine-2-carboxamide]
8.22 | 7.17 | 6.60 | 6.65 | CCC[C@H](NC(=O)[C@@H]1C[C@@H](S(=O)(=O)c2ccc(O[C@@H](C)C(F)(F)F)cc2Cl)CN1C(=O)C1(c2ccc(Cl)cc2)CC1)C(=O)C(=O)NC1CC1 [Example 46, (2S,4R)-4-(2-chloro-4-((S)-1,1,1-trifluoropropan-2-yloxy)phenylsulfonyl)-1-(1-(4-chlorophenyl)cyclopropanecarbonyl)-N—((S)-1-(cyclopropylamino)-1,2-dioxohexan-3-yl)pyrrolidine-2-carboxamide]
7.65 | 6.55 | 6.00 | 5.81 | CCC[C@H](NC(=O)[C@@H]1C[C@@H](S(=O)(=O)c2ccccc2Cl)CN1C(=O)C1(c2ccc(Cl)cc2)CC1)C(=O)C(=O)N(C)C1CC1 [Example 47, (2S,4R)-1-(1-(4-chlorophenyl)cyclopropanecarbonyl)-4-(2-chlorophenylsulfonyl)-N—((S)-1-(cyclopropyl(methyl)amino)-1,2-dioxohexan-3-yl)pyrrolidine-2-carboxamide]
9.28 | 8.03 | 7.46 | 7.08 | CCC[C@H](NC(=O)[C@@H]1C[C@@H](S(=O)(=O)c2ccc(F)cc2Cl)CN1C(=O)C1(c2ccc(Cl)cc2)CC1)C(=O)C(=O)NC1CC1 [Example 48, (2S,4R)-4-(2-chloro-4-fluorophenylsulfonyl)-1-(1-(4-chlorophenyl)cyclopropanecarbonyl)-N—((S)-1-(cyclopropylamino)-1,2-dioxohexan-3-yl)pyrrolidine-2-carboxamide]
9.05 | 8.70 | 7.46 | 7.52 | CC[C@H](NC(=O)[C@@H]1C[C@@H](S(=O)(=O)c2ccccc2Cl)CN1C(=O)C1(c2ccc(Cl)cc2)CC1)C(=O)C(=O)NCCc1ccccc1 [Example 49, (2S,4R)-1-(1-(4-chlorophenyl)cyclopropanecarbonyl)-4-(2-chlorophenylsulfonyl)-N—((S)-1,2-dioxo-1-(phenethylamino)pentan-3-yl)pyrrolidine-2-carboxamide]
8.56 | 8.07 | 6.92 | 7.16 | CC[C@H](NC(=O)[C@@H]1C[C@@H](S(=O)(=O)c2ccccc2Cl)CN1C(=O)C1(c2ccc(Cl)cc2)CC1)C(=O)C(=O)NCCc1cccc2ccccc12 [Example 50, (2S,4R)-1-(1-(4-chlorophenyl)cyclopropanecarbonyl)-4-(2-chlorophenylsulfonyl)-N—((S)-1-(2-(naphthalen-1-yl)ethylamino)-1,2-dioxopentan-3-yl)pyrrolidine-2-carboxamide]
8.51 | 7.89 | 6.80 | 6.76 | CC[C@H](NC(=O)[C@@H]1C[C@@H](S(=O)(=O)c2ccccc2Cl)CN1C(=O)C1(c2ccc(Cl)cc2)CC1)C(=O)C(=O)NCCc1ccc2ccccc2c1 [Example 51, (2S,4R)-1-(1-(4-chlorophenyl)cyclopropanecarbonyl)-4-(2-chlorophenylsulfonyl)-N—((S)-1-(2-(naphthalen-2-yl)ethylamino)-1,2-dioxopentan-3-yl)pyrrolidine-2-carboxamide]
8.71 | 8.03 | 6.50 | 6.41 | CC[C@H](NC(=O)[C@@H]1C[C@@H](S(=O)(=O)c2ccccc2Cl)CN1C(=O)C1(c2ccc(Cl)cc2)CC1)C(=O)C(=O)NCc1cccc2ccccc12 [Example 52, (2S,4R)-1-(1-(4-chlorophenyl)cyclopropanecarbonyl)-4-(2-chlorophenylsulfonyl)-N—((S)-1-(naphthalen-1-ylmethylamino)-1,2-dioxopentan-3-yl)pyrrolidine-2-carboxamide]
9.17 | 8.77 | 7.41 | 6.72 | CC[C@H](NC(=O)[C@@H]1C[C@@H](S(=O)(=O)c2ccccc2Cl)CN1C(=O)C1(c2ccc(Cl)cc2)CC1)C(=O)C(=O)NC1CCOCC1 [Example 53, (2S,4R)-1-(1-(4-chlorophenyl)cyclopropanecarbonyl)-4-(2-chlorophenylsulfonyl)-N—((S)-1,2-dioxo-1-(tetrahydro-2H-pyran-4-ylamino)pentan-3-yl)pyrrolidine-2-carboxamide]
9.20 | 8.59 | 7.09 | 7.07 | CC[C@H](NC(=O)[C@@H]1C[C@@H](S(=O)(=O)c2ccccc2Cl)CN1C(=O)C1(c2ccc(Cl)cc2)CC1)C(=O)C(=O)NCCOC [Example 54, (2S,4R)-1-(1-(4-chlorophenyl)cyclopropanecarbonyl)-4-(2-chlorophenylsulfonyl)-N—((S)-1-(2-methoxyethylamino)-1,2-dioxopentan-3-yl)pyrrolidine-2-carboxamide]
